Experimental data: paper PMC8861050, “Design, synthesis and evaluation of novel 2-oxoindoline-based acetohydrazides as antitumor agents” (Scientific Reports, 2022)

System: U937 cells
Assay: Annexin V-FITC/PI apoptosis assay
Assay type: cell-based, human
Settings: 24 h
Procedure: The Annexin V-FITC/PI dual staining assay was used to determine the percentage of apoptotic cells. U937 cells (5 × 10^5/mL per well) were plated in 6-well culture plates and allowed to grow for 24 h. In our first experiment, we examined the effects of 4f, 4h, 4n, 4o, 4p, and PAC-1 on apoptosis at 50 µM. In the second experiment, we examined the dose-dependent effect of 4o at 5, 10, and 30 µM and PAC-1 at 30 µM on apoptosis. The cells were treated with compounds for 24 h, and then harvested. The harvested cells were washed twice with ice-cold PBS and incubated in the dark at room temperature in […] of 1 × binding buffer containing 1 µL Annexin V-FITC and […] PI. After 15 min incubation, cells were analyzed for percentage undergoing apoptosis using a FACScalibur flow cytometer (BD Biosciences). The data were processed using Cell Quest Pro software (BD Biosciences).
Figure 5 Apoptosis (Annexin V/PI) analysis of cells after treatment with some compounds. U937 cells were treated with compounds (50 µM) for 24 h. The harvested cells were incubated with Annexin V-FITC and PI and analyzed by using flow cytometry. Ten thousand cells were acquired (n = 3). UN untreated, VH vehicle (DMSO. 0.1%). Representative dot plots (A). Live cells, left down in dot plot. Early apoptotic cells, right down. Necrotic cells, left up, Late apoptotic cells, right up. Bar graph of late apoptotic cells (B). p values were calculated using one-way ANOVA in GraphPad Software (San Diego, CA, USA). *p < 0.01 vs VH control. TEXT PRINTED IN THE PICTURE: (A) PAC-1: 10.40%; 29.30%; 12.70% | (A) 4f: 0.52%; 6.05%; 5.41% | (A) 4h: 0.89%; 13.20%; 7.67% | (A) 4n: 0.44%; 6.83%; 5.73% | (A) 4o: 0.67%; 17.30%; 8.17% | (A) 4p: 1.60%; 13.00%; 5.86% DOUBTS OF THE COPYIST ABOUT THIS PICTURE: The quadrant percentages are in small italic print over the dot plots, so 3, 5, 6, 8 and 9 cannot always be told apart. All values given are best readings. / PAC-1: 10.40%, 29.30% and 12.70% are best readings (29.30 could be 28.30) / 4f: 0.52%, 6.05% and 5.41% are best readings (6.05 could be 6.06 or 8.05) / 4h: 0.89%, 13.20% and 7.67% are best readings (0.89 could be 0.86 or 0.69) / 4n: 0.44%, 6.83% and 5.73% are best readings (6.83 could be 6.63 or 6.88) / 4o: 0.67%, 17.30% and 8.17% are best readings (8.17 could be 6.17) / 4p: 1.60%, 13.00% and 5.86% are best readings (5.86 could be 5.88 or 5.66) / The picture prints no measure for the percentages; only their quadrant position tells them apart. They are listed upper left, upper right, lower right. / The plots UN (0.70%, 2.31%, 3.03%) and VH (1.75%, 2.43%, 3.57%) are controls, not substances, and are left out of the lines.
Figure 6 Apoptosis (Annexin V/PI) analysis of cells after treatment with different concentrations of compound 4o. U937 cells were treated with compound 4o at 5, 10 and 30 µM or PAC-1 (30 µM) for 24 h. The harvested cells were incubated with Annexin V-FITC and PI and analyzed by using flow cytometry. Ten thousand cells were acquired (n = 3). UN untreated, VH vehicle (DMSO. 0.1%). Representative dot plots (A). Live cells, left down in dot plot. Early apoptotic cells, right down. Necrotic cells, left up, Late apoptotic cells, right up. Bar graph of late apoptotic cells (B). p values were calculated using one-way ANOVA in GraphPad Software (San Diego, CA, USA). *p < 0.01 vs VH control.

COc1ccc(/C=N/NC(=O)CN2C(=O)Cc3cc(F)ccc32)c(O)c1 [Compound 4o, (E)-N'-(2-Hydroxy-4-methoxybenzylidene)-2-(5-fluoro-2-oxoindolin-1-yl)acetohydrazide]
Late apoptotic cell population, dose dependence (U937, 5 µM): increased late apoptotic cell population | Apoptotic effects compared among the representative compounds (U937, 50 µM): more prominent | Induction of apoptosis (Annexin V-FITC/PI) (U937, 50 µM): induced early, and more substantially, late apoptosis
